Reference: patent US4130433A, “Industrial biocides” (Abbott Laboratories, priority 1977, dated 1978)

test system: A.niger and P.funiculosum; assay: minimum inhibitory concentration (MIC) test, agar plates, fungal growth; format: cell-based; conditions: agar inoculated with 10,000 units each of A.niger and P.funiculosum; 30° C., 2 weeks; in µg/mL (unit assumed)
Protocol: In a minimum inhibitory concentration (MIC) test, the amount of the test compound needed to prevent fungal growth is established. In this test, agar containing the test compound at a specified concentration is inoculated with 1 ml of a broth containing 10,000 units each of A.niger and P.funiculosum. The agar plates inoculated in this fashion are incubated at 30° C. for 2 weeks and growth of the micro-organisms is determined by visual inspection to establish presence or absence of fungal growth. The compounds made according to Example 1 and their MIC data are shown in the following table, wherein X, Y, Y' and Z are as indicated in Structure I.

| MIC | SMILES |
| --- | --- |
| 1000-1500 | COC(=O)c1cc(Oc2ccc(Cl)cc2Cl)ccc1N1C(=O)C(Cl)=C(Cl)C1=O [X=Cl, Y=2-CO2 Me, Y'=2,4-Cl2, Z=O] |
| > 2000 | O=C1C(Cl)=C(Cl)C(=O)N1c1ccc(Oc2ccc(Cl)c(Cl)c2)c(Cl)c1 [X=Cl, Y=3-Cl, Y'=3,4-Cl2, Z=O] |
| 1000-1500 | O=C1C(Cl)=C(Cl)C(=O)N1c1ccc(Oc2ccc(Cl)cc2Cl)cc1 [X=Cl, Y=H, Y'=2,4-Cl2, Z=O] |
| 10- 50 | COC(=O)c1cc(Oc2ccc(Cl)cc2Cl)ccc1N1C(=O)C=CC1=O [X=H, Y=2-CO2 Me, Y'=2,4-Cl2, Z=O] |
| 50-100 | O=C1C=CC(=O)N1c1ccc(Oc2ccc(Cl)cc2Cl)cc1 [X=H, Y=H, Y'=2,4-Cl2, Z=O] |

The remaining lines, values behind:

| SMILES | MIC |
| --- | --- |
| O=C1C(Cl)=C(Cl)C(=O)N1c1ccc(Sc2ccc([N+](=O)[O-])cc2)cc1 [X=Cl, Y=H, Y'=4-NO2, Z=S] | 50-100 |
| O=C1C(Cl)=C(Cl)C(=O)N1c1ccc(Sc2ccccc2)cc1 [X=Cl, Y=H, Y'=H, Z=S, N-(p-phenylthiophenyl)-2,3-dichloromaleimide] | 500-1000 |
| O=C1C=CC(=O)N1c1ccc(Sc2ccc([N+](=O)[O-])cc2)cc1 [X=H, Y=H, Y'=4-NO2, Z=S] | 50-100 |
| O=C1C=CC(=O)N1c1ccc(Sc2ccccc2)cc1 [X=H, Y=H, Y'=H, Z=S] | 100-200 |
